# Legend:
# [1] = Moisture absorption/desorption test; type: physicochemical; conditions: for Weight change ratio, Adsorption / Weight change ratio, Desorption: 25° C.; for characteristic of channel hydrate: absorb/desorb moisture depending on humidity; for weight change at a maximum: humidified at a relative humidity of from 5 to 95%
# Experimental: Moisture absorption/desorption test was carried out with respect to Compound A, monofumarate of Compound A, hemifumarate of Compound A, hemitartrate of Compound A and monophosphate of Compound A, to research the presence or absence of the characteristic of channel hydrate.
# In the moisture absorption/desorption test, measurements were carried out according to the following conditions.
# A dedicated quartz holder was filled with about from 5 to 10 mg of sample, and a weight of the sample at each humidity was measured and recorded in a continuous manner under the following conditions. Handling of the devices including data processing was based on the method and the process indicated in each device.
# Device: VTI SA+ (manufactured by TA Instruments Inc.)
# Drying temperature: 60° C.
# Temperature rising speed: 1° C./min.
# Equilibrium in drying: It is confirmed that no reduction of 0.01 wt % occurs in 5 minutes, in a range not exceeding 300 minutes.
# Temperature for measurement: 25° C.
# Equilibrium in humidification: It is confirmed that no increase of 0.01 wt % occurs in 5 minutes, in a range not exceeding 120 minutes.
# Relative humidity program: Raised by 5% RH from 5% RH to 95% RH, and lowered by 5% RH from 95% RH to 5% RH.
# [2] = Solid stability test (acceleration test), 40° C./75% RH; type: physicochemical
# Experimental: Solid stability was measured under the following conditions, with respect to monofumarate of Compound A, hemifumarate of Compound A, hemitartrate of Compound A and monophosphate of Compound A which were obtained in the Examples and the Reference Examples, when they were stored for 2 weeks or 4 weeks at 40° C./75% RH (sealed condition and opened condition).
# Storage condition: 40° C./75% RH (Sealed and Opened) (Opened refers to a condition where a glass container has the lid removed, and is covered with a KimWipe).
# Points of measurement: 2 weeks and 4 weeks
# (§1) Storage amount: About 30 mg
# (§2) Storage container: Brown glass container
# (§3) Method of preparing sample solution: Sample was dissolved in 50% acetonitrile such that a concentration of the sample would be 0.4 mg/mL.
# Mass of analogous substance in the sample solution was measured by HPLC analysis. Handling of the devices including data processing was based on the method and the process indicated in each device. (Device: Shimadzu Corporation SIL-HTc/LC-20AB)
# Column: InertSustein C18, 4.6×150 mm, 3 μm, manufactured by GL Sciences Inc.
# MS detection: ESI positive
# Column temperature: 40° C.
# Column flow rate: 1.0 mL/min
# Mobile phase: A; 10 mmol/L phosphate buffer (pH 6.0): Acetonitrile mixed solution (17:3), B; Acetonitrile
# Amount of injection: 5 μL
# In the Table, A, B and C refer to percentages of the total mass of analogous substance of less than 0.1%, 0.1% or more and less than 0.5%, and 0.5% or more, respectively. Incidentally, those marked with * were measured at 2 weeks' time and the others were measured at 4 weeks' time.
# [3] = Solid stability test (severe test), 60° C.; type: physicochemical; conditions: 60° C. (Sealed)
# Experimental: Solid stability was measured under the following conditions, with respect to monofumarate of Compound A, hemitartrate of Compound A and monophosphate of Compound A which were obtained in the Examples and the Reference Examples, when they were stored for 2 weeks or 4 weeks at 60° C.
# Storage condition: 60° C. (Sealed)
# Point of measurement: 2 weeks and 4 weeks
# as §1, §2, §3
# In the Table, A and B refer to percentages of the total mass of analogous substance of less than 0.1%, and 0.1% or more and less than 0.5%, respectively. Incidentally, the value marked with * was measured at 2 weeks and the others were measured at 4 weeks.
# [4] = system: mouse collagen-induced arthritis model; test: Mice collagen-induced arthritis model; type: in vivo, DBA/1 mice; conditions: 3 mg/kg, positive control, 17 days; FIG. 11
# Experimental: The test was carried out in accordance with the method described in Non-Patent Literature (Brand D D, et al., Nat Protoc. 2007; 2, 1269-1275, Xu D. et al., JPET, 2012 April; 341 (1):90-103). Seven-week-old male/DBA/1 mice (CHARLES RIVER LABORATORIES JAPAN, INC.) were intracutaneously injected in the dorsum with 100 μL/body of an equal amount-mixed solution (emulsion) of 4 mg/mL of bovine type 2 collagen solution (Collagen Research Center) and Complete Freund's Adjuvant (DIFCO Inc.) (initial immunization). After 21 days therefrom, the mice were intracutaneously injected in the chine with 100 μL/body of an equal amount-mixed solution (emulsion) of 4 mg/mL of bovine type 2 collagen solution (Collagen Research Center) and Complete Freund's Adjuvant (DIFCO) to provide an additional immunization. The oral administration of 1 time per day was continued for 17 days setting the administration initiation day (day 0) as the eighth day from the additional immunization. Symptoms of arthritis in day 0, day 3, day 7, day 10, day 14 and day 17 were scored macroscopically (0: No change, 1: Swelling of a finger, 2: Swelling of two fingers or more, 3: Swelling of instep, 4: Swelling of all fingers extending wrist/ankle), and a total in four limbs was obtained as a point of individual body (maximum 16 points).
# [5] = Blood concentration measurement test after oral administration; conditions: mice
# Experimental: (§4) These administration solutions were orally administered to mice (Balb/cA) which had been bred under a feeding condition, at a dose of 10 mL per 1 kg body weight, with a sonde for oral administration. After the administration, the mice were returned to a cage for mice and conditions were checked. Inside the cage was provided with a condition where water and food were accessible ad libitum. After 0.25, 0.5, 1, 2, 4 and 6 hours from the administration, the mice were anesthetized with isoflurane, and 60 μL of blood was collected from orbital sinus with a capillary blood collection tube.
# (§5) The collected blood was ice cooled, and blood plasma was separated by a centrifugal operation. The mice after the blood collection was returned to an animal breeding cage, and conditions after recovery from the anesthesia were checked. When the last blood collection was finished, the mice were euthanized by cervical dislocation, after a level check of isoflurane anesthesia.
# (§6) AUC0-6 hr, Cmax and Tmax were calculated by linear-log trapezoid method with Phoenix WinNonlin (v6.3.0) which is a software manufactured by Pharsight Corporation, from a concentration of Compound A in each blood plasma measured by MRM method with LC-MS/MS.
# [6] = Research of base addition salts of Compound A (solubility observation); type: physicochemical; conditions: water / organic solvent, in words
# Experimental: A research was carried out on salt formation with sodium and magnesium, among inorganic bases. Specifically, Compound A was dissolved in an appropriate solvent, and each kind of the bases was added thereto (from 0.5 to 1.5 equivalent), and stirring was carried out for overnight, to thereby determine whether or not a salt formation occurred. As a result, in salt formation with sodium, decomposition remarkably proceeded, and therefore, the research was suspended. From the case of magnesium, hemi magnesium salt of Compound A was obtained (Reference Example 6).
# [7] = in vivo; conditions: Balb/cA, mouse, po, 50 mg/kg
# Experimental: as §4, §5, §6
# [8] = 50 mg/kg in terms of Compound A, 0.5% HPMC suspension, plasma Compound A
SMILES,"Weight change ratio, Adsorption ([1]; relative humidity 5%) [%]","Weight change ratio, Desorption ([1]; relative humidity 5%) [%]","Weight change ratio, Adsorption ([1]; relative humidity 20%) [%]","Weight change ratio, Desorption ([1]; relative humidity 20%) [%]","Weight change ratio, Adsorption ([1]; relative humidity 40%) [%]","Weight change ratio, Desorption ([1]; relative humidity 40%) [%]","Weight change ratio, Adsorption ([1]; relative humidity 60%) [%]","Weight change ratio, Desorption ([1]; relative humidity 60%) [%]","Weight change ratio, Adsorption ([1]; relative humidity 80%) [%]","Weight change ratio, Desorption ([1]; relative humidity 80%) [%]","Weight change ratio, Adsorption ([1]; relative humidity 95%) [%]","Weight change ratio, Desorption ([1]; relative humidity 95%) [%]",weight change at a maximum [1],"total mass of analogous substance ([2]; Opened, 4 weeks)","total mass of analogous substance ([2]; Sealed, 4 weeks)",characteristic of channel hydrate [1],further results
"C=CC(=O)N1CCC[C@@H](n2nc(C(=O)Nc3nc4ccccc4o3)c3c(N)ncnc32)C1.O=P(O)(O)O [monophosphate of Compound A, (R)-1-(1-acryloylpiperidin-3-yl)-4-amino-N-(benzo[d]oxazol-2-yl)-1H-pyrazolo[3,4-d]pyrimidine-3-carboxamide.monophosphate]",0.01,5.76,0.19,8.06,0.36,9.29,0.61,10.38,1.29,12.12,17.90,17.90,,,,,"crystal form after the moisture absorption/desorption test [1]: did not maintain the original crystal form; total mass of analogous substance ([2]; Opened, 2 weeks (marked *)): C* (0.5% or more); total mass of analogous substance ([2]; Sealed, 2 weeks (marked *)): C* (0.5% or more); total mass of analogous substance ([3]; 2 weeks (marked *)): B* (0.1% or more and less than 0.5%)"
"C[C@]12C=CC(=O)C=C1CC[C@@H]1[C@@H]2[C@@H](O)C[C@@]2(C)[C@H]1CC[C@]2(O)C(=O)CO [prednisolone, reference compound]",,,,,,,,,,,,,,,,,arthritis score [4]: only in a degree of maintaining the raised arthritis score
"C=CC(=O)N1CCC[C@@H](n2nc(C(=O)Nc3nc4ccccc4o3)c3c(N)ncnc32)C1.C=CC(=O)N1CCC[C@@H](n2nc(C(=O)Nc3nc4ccccc4o3)c3c(N)ncnc32)C1.[Mg] [hemi magnesium salt of Compound A, (R)-1-(1-acryloylpiperidin-3-yl)-4-amino-N-(benzo[d]oxazol-2-yl)-1H-pyrazolo[3,4-d]pyrimidine-3-carboxamide.hemi magnesium salt]",,,,,,,,,,,,,,,,,solubility [6]: low solubility to water and to an organic solvent
"C=CC(=O)N1CCC[C@@H](n2nc(C(=O)Nc3nc4ccccc4o3)c3c(N)ncnc32)C1 [Compound A, (R)-1-(1-acryloylpiperidin-3-yl)-4-amino-N-(benzo[d]oxazol-2-yl)-1H-pyrazolo[3,4-d]pyrimidine-3-carboxamide]",0.42,0.67,3.08,3.20,3.60,3.65,3.88,3.88,4.09,4.11,4.39,4.39,about 4.4%,,,had the characteristic of channel hydrate,AUC(0-t) [7]: 5.45 µM·h; Cmax [7]: 3.98 µM; Tmax [7]: 15 min

# Further lines, with some results ahead:
"Weight change ratio, Adsorption ([1]; relative humidity 5%) [%]","Weight change ratio, Desorption ([1]; relative humidity 5%) [%]","Weight change ratio, Adsorption ([1]; relative humidity 20%) [%]","Weight change ratio, Desorption ([1]; relative humidity 20%) [%]","Weight change ratio, Adsorption ([1]; relative humidity 40%) [%]","Weight change ratio, Desorption ([1]; relative humidity 40%) [%]","Weight change ratio, Adsorption ([1]; relative humidity 60%) [%]","Weight change ratio, Desorption ([1]; relative humidity 60%) [%]","Weight change ratio, Adsorption ([1]; relative humidity 80%) [%]","Weight change ratio, Desorption ([1]; relative humidity 80%) [%]","Weight change ratio, Adsorption ([1]; relative humidity 95%) [%]","Weight change ratio, Desorption ([1]; relative humidity 95%) [%]",weight change at a maximum [1],"total mass of analogous substance ([2]; Opened, 4 weeks)","total mass of analogous substance ([2]; Sealed, 4 weeks)",SMILES,characteristic of channel hydrate [1],further results
0.01,−0.28,1.25,1.17,1.56,1.32,1.67,1.45,1.64,1.72,3.31,3.31,about 3.3%,B (0.1% or more and less than 0.5%),B (0.1% or more and less than 0.5%),"C=CC(=O)N1CCC[C@@H](n2nc(C(=O)Nc3nc4ccccc4o3)c3c(N)ncnc32)C1.C=CC(=O)N1CCC[C@@H](n2nc(C(=O)Nc3nc4ccccc4o3)c3c(N)ncnc32)C1.O=C(O)C(O)C(O)C(=O)O [hemitartrate of Compound A, (R)-1-(1-acryloylpiperidin-3-yl)-4-amino-N-(benzo[d]oxazol-2-yl)-1H-pyrazolo[3,4-d]pyrimidine-3-carboxamide.hemi-L-(+)-tartrate]",had the characteristic of channel hydrate,total mass of analogous substance ([3]; 4 weeks): B (0.1% or more and less than 0.5%)
0.00,0.04,0.07,0.11,0.16,0.23,0.28,0.40,0.42,0.54,0.81,0.81,,A (less than 0.1%),A (less than 0.1%),"C=CC(=O)N1CCC[C@@H](n2nc(C(=O)Nc3nc4ccccc4o3)c3c(N)ncnc32)C1.C=CC(=O)N1CCC[C@@H](n2nc(C(=O)Nc3nc4ccccc4o3)c3c(N)ncnc32)C1.O=C(O)/C=C/C(=O)O [hemifumarate of Compound A, (R)-1-(1-acryloylpiperidin-3-yl)-4-amino-N-(benzo[d]oxazol-2-yl)-1H-pyrazolo[3,4-d]pyrimidine-3-carboxamide.hemifumarate]",,"mass change (increase) ([1]; relative humidity of 95%): less than 1%; solid stability (in words) ([2]; compared to hemitartrate or monophosphate): excellent solid stabilities; AUC0-6 hr relative to that of Compound A ([5]; 50 mg/kg): about two fold; Cmax relative to that of Compound A ([5]; 50 mg/kg): equivalent to that of Compound A; AUC0-6 hr [5, 8]: 10.32 µM·h; Cmax [5, 8]: 4.22 µM; Tmax [5, 8]: 30 min"

# Reference: patent US10280174B2, “Salt of fused pyrimidine compound and crystal thereof” (TAIHO PHARMACEUTICAL CO., LTD., priority 2015, dated 2019)
